Among the data in patent US8912209B2, “Rock inhibitors” (Amakem NV, priority 2010, dated 2014) are IC50 values, retold here.

Bounds are passed on as bounds.

Assay [1] addresses T1, ROCKα/ROCKII (Homo sapiens, UniProt O75116).
T1 construct: purchased Upstate Biotechnology 14-451
Put plainly: ROCK inhibition, Method 2 fluorescence polarization (FP) assay, ROCK IMAP Kit. Type of assay: biochemical. The settings on record: 10 μM ATP, read-out: IC50 Meth. 2. In general terms: In fluorescence polarisation assays a small probe gives low polarisation when free and higher when bound to something large.

Assay [2] addresses T2, ROCK II (Homo sapiens, UniProt O75116).
T2 construct: purchased Proqinase
Nature of the assay: ROCK II kinase inhibition, Method 1 Proqinase setup (33P radioisotopic protein kinase assay). The format is biochemical. The settings on record: 33P radioisotopic assay, 1 μM ATP, read-out: IC50 Meth. 1. The protocol:
A ^33P radioisotopic protein kinase assay is used to determine the IC50 for inhibiting ROCK II. A final 50 μl reaction cocktail, containing 60 mM HEPES-NaOH (pH 7.5), 3 mM MgCl2, 3 mM MnCl2, 3 μM Na-orthovanadate, 1.2 mM DTT, 1 μM ATP, 50 μg/ml PEG20.000, 1% (v/v) DMSO, 1 μM ATP (approx. 3×10^5 cpm ^33P-γ-ATP), the substrate (Substrate: S6 peptide—2000 ng/well) and recombinant protein kinase (0.5 nM-2.5 ng/well) is mixed on a shaker and incubated at 30° C. for 80 minutes. The reaction is stopped by the addition of 50 μl of a 2% solution of H3PO4 and mixed on a shaker. After washing twice with 200 μl of a 0.9% solution of NaCl, the dry plate is counted.

T1 sequence (O75116 whole entry): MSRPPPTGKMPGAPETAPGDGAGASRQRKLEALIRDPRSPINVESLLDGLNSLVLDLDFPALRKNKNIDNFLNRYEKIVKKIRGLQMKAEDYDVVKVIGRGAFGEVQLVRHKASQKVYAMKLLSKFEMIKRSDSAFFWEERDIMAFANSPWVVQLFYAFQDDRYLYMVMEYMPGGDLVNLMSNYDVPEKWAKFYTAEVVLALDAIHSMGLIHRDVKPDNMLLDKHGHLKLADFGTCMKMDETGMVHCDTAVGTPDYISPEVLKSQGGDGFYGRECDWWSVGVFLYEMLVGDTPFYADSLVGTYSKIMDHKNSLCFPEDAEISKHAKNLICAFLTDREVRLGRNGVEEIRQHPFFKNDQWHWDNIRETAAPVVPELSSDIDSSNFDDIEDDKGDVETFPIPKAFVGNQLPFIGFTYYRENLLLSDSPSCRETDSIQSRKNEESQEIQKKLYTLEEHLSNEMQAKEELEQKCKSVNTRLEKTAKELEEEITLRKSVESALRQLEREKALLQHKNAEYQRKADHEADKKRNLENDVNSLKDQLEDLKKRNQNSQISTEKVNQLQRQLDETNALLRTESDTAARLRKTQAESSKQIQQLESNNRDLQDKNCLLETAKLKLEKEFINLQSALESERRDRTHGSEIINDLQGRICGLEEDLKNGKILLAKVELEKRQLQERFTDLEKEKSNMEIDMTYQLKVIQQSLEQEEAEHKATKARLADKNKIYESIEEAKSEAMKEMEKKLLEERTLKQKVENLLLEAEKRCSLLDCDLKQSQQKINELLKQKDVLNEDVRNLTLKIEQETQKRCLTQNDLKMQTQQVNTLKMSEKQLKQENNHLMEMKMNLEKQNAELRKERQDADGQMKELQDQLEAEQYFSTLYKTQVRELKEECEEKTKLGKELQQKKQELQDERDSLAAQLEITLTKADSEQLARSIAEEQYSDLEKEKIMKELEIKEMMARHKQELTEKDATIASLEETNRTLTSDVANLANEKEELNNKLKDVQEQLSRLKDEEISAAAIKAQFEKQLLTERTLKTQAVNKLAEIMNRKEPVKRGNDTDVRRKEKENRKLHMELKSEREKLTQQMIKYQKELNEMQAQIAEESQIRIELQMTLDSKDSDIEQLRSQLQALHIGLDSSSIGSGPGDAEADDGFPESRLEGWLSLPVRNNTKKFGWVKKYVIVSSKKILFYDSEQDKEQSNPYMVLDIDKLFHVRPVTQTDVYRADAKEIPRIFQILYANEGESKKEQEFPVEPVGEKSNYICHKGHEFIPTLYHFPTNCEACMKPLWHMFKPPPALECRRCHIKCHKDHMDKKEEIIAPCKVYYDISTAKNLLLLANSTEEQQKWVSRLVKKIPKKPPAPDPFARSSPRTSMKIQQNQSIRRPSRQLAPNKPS
T2 sequence (O75116 whole entry): as above

Turning to `COC(=O)c1cccc(-c2cc(C(=O)Nc3ccncc3F)ccc2C(C)N)c1` (centres unmarked) [Compound 5, 2′-(1-Amino-ethyl)-5′-(3-fluoro-pyridin-4-ylcarbamoyl)-biphenyl-3-carboxylic acid methyl ester], the 50% inhibitory concentration (IC50) – broadly, the midpoint of a concentration-inhibition curve – was below 100 nM in assay [1] and 100 to 1000 nM in assay [2].

For the molecule `CCOC(=O)c1cccc(-c2cc(C(=O)Nc3ccncc3)ccc2C(C)N)c1` (centres unmarked) [Compound 8, 2′-(1-Amino-ethyl)-5′-(pyridin-4-ylcarbamoyl)-biphenyl-3-carboxylic acid ethyl ester], the IC50 in assay [1] and in assay [2] was below 100 nM each time. As to `CCCOC(=O)c1cccc(-c2cc(C(=O)Nc3ccncc3)ccc2C(C)N)c1` (centres unmarked) [Compound 11, 2′-(1-Amino-ethyl)-5′-(pyridin-4-ylcarbamoyl)-biphenyl-3-carboxylic acid propyl ester], the concentration for half-maximal inhibition (IC50) in assay [1] and in assay [2] was below 100 nM throughout.

Consider `CCCOC(=O)c1cccc(-c2cc(C(=O)Nc3ccncc3F)ccc2C(C)N)c1` (centres unmarked) [Compound 12, 2′-(1-Amino-ethyl)-5′-(3-fluoro-pyridin-4-ylcarbamoyl)-biphenyl-3-carboxylic acid propyl ester], for which the concentration for half-maximal inhibition (IC50) in assay [1] was below 100 nM; in assay [2], 100 to 1000 nM. The matching figures for `CCCCOC(=O)c1cccc(-c2cc(C(=O)Nc3ccncc3)ccc2C(C)N)c1` (centres unmarked) [Compound 13, 2′-(1-Amino-ethyl)-5′-(pyridin-4-ylcarbamoyl)-biphenyl-3-carboxylic acid butyl ester]: below 100 nM and below 100 nM. Regarding `CC(C)COC(=O)c1cccc(-c2cc(C(=O)Nc3ccncc3F)ccc2C(C)N)c1` (centres unmarked) [Compound 28, 2′-(1-Amino-ethyl)-5′-(3-fluoro-pyridin-4-ylcarbamoyl)-biphenyl-3-carboxylic acid isobutyl ester], the 50% inhibitory concentration (IC50) in assay [1] and in assay [2] was 100 to 1000 nM in each case. Take `CC(N)c1ccc(C(=O)Nc2ccncc2F)cc1-c1cccc(C(=O)OCC2CC2)c1` (centres unmarked) [Compound 37, 2′-(1-Amino-ethyl)-5′-(3-fluoro-pyridin-4-ylcarbamoyl)-biphenyl-3-carboxylic acid cyclopropylmethyl ester]: the figures for the IC50 in assay [1] and in assay [2] were below 100 nM and 100 to 1000 nM, respectively.

As for `CC(N)c1ccc(C(=O)Nc2ccncc2)cc1-c1cccc(C(=O)OCC2CCCO2)c1` (centres unmarked) [Compound 44, 2′-(1-Amino-ethyl)-5′-(pyridin-4-ylcarbamoyl)-biphenyl-3-carboxylic acid tetrahydro-furan-2-ylmethyl ester], the IC50 in assay [1] and in assay [2] was below 100 nM each time. Turning to `CC(N)c1ccc(C(=O)Nc2ccncc2)cc1-c1cccc(C(=O)OCC2CCCCO2)c1` (centres unmarked) [Compound 45, 2′-(1-Amino-ethyl)-5′-(pyridin-4-ylcarbamoyl)-biphenyl-3-carboxylic acid tetrahydro-pyran-2-ylmethyl ester], the IC50 in assay [1] and in assay [2] was below 100 nM throughout. In the case of `CC(N)c1ccc(C(=O)Nc2ccncc2)cc1-c1cccc(C(=O)OCCF)c1` (centres unmarked) [Compound 60, 2′-(1-Amino-ethyl)-5′-(pyridin-4-ylcarbamoyl)-biphenyl-3-carboxylic acid 2-fluoro-ethyl ester], the results for the IC50 in assay [1] and in assay [2] were below 100 nM and 100 to 1000 nM, respectively. For `CC(N)c1ccc(C(=O)Nc2ccncc2)cc1-c1cccc(C(=O)Oc2ccccc2)c1` (centres unmarked) [Compound 70, 2′-(1-Amino-ethyl)-5′-(pyridin-4-ylcarbamoyl)-biphenyl-3-carboxylic acid phenyl ester], in that order: below 100 nM and below 100 nM.

Turning to `CC(N)c1ccc(C(=O)Nc2ccncc2F)cc1-c1cccc(C(=O)Oc2ccccc2)c1` (centres unmarked) [Compound 71, 2′-(1-Amino-ethyl)-5′-(3-fluoro-pyridin-4-ylcarbamoyl)-biphenyl-3-carboxylic acid phenyl ester], the IC50 in assay [1] and in assay [2] was 100 to 1000 nM throughout. In the case of `CC(N)c1ccc(C(=O)Nc2ccncc2)cc1-c1cccc(C(=O)OCCCOc2ccccc2)c1` (centres unmarked) [Compound 88, 2′-(1-Amino-ethyl)-5′-(pyridin-4-ylcarbamoyl)-biphenyl-3-carboxylic acid 3-phenoxy-propyl ester], the results for the 50% inhibitory concentration (IC50) in assay [1] and in assay [2] were 100 to 1000 nM and below 100 nM, respectively. For the molecule `NCc1ccc(C(=O)Nc2ccncc2)cc1-c1cccc(NCCSC2CCOC2=O)c1` (centres unmarked) [Compound 136, 6-Aminomethyl-3′-[2-(2-oxo-tetrahydro-furan-3-ylsulfanyl)-ethylamino]-biphenyl-3-carboxylic acid pyridin-4-ylamide], the IC50 in assay [2] lay in the range of 100 to 1000 nM. On the same count and under the same terms, in the case of `CCSC(=O)COc1cccc(-c2cc(C(=O)Nc3ccncc3)ccc2CN)c1` [Compound 143, [2′-Aminomethyl-5′-(pyridin-4-ylcarbamoyl)-biphenyl-3-yloxy]-thioacetic acid S-ethyl ester] it was 100 to 1000 nM. The same measure, in the same setting: the same measure for `COC(=O)CNC(=O)COc1cccc(-c2cc(C(=O)Nc3ccncc3)ccc2CN)c1` [Compound 147, {2-[2′-Aminomethyl-5′-(pyridin-4-ylcarbamoyl)-biphenyl-3-yloxy]-acetylamino}-acetic acid methyl ester]: below 100 nM; for `COC(=O)c1cc2c(-c3cc(C(=O)Nc4ccncc4)ccc3C(C)N)cccc2[nH]1` (centres unmarked) [Compound 171, 4-[2-(1-Amino-ethyl)-5-(pyridin-4-ylcarbamoyl)-phenyl]-1H-indole-2-carboxylic acid methyl ester]: 100 to 1000 nM; for `NCc1ccc(C(=O)Nc2ccncc2F)cc1-c1cccc(C(=O)OCCF)c1` [Compound 178]: 100 to 1000 nM.

Take `NCc1ccc(C(=O)Nc2ccncc2F)cc1-c1cccc(C(=O)NC2CCSC2=O)c1` (centres unmarked) [Compound 179]: the IC50 in assay [2] was 100 to 1000 nM. On the same count and under the same terms, the same measure for `NCc1ccc(C(=O)Nc2ccncc2F)cc1-c1cccc(C(=O)OCc2ccccc2)c1` [Compound 180]: 100 to 1000 nM.

On to `NCc1ccc(C(=O)Nc2ccncc2F)cc1-c1cccc(OCC(=O)OCc2ccccc2)c1` [Compound 181], for which the IC50 in assay [2] was 1000 to 10000 nM. The same measure, in the same setting: in the case of `NCc1ccc(C(=O)Nc2ccncc2F)cc1-c1cccc(CC(=O)OCC23CC4CC(CC(C4)C2)C3)c1` [Compound 182] it was 100 to 1000 nM; in that of `NCc1ccc(C(=O)Nc2ccncc2F)cc1-c1cccc(C(=O)OCCO)c1` [Compound 183], 100 to 1000 nM; in that of `NCc1ccc(C(=O)Nc2ccncc2F)cc1-c1cccc(C(=O)OCC2CCC2)c1` [Compound 184], 100 to 1000 nM. On the same count and under the same terms, the same measure for `NCc1ccc(C(=O)Nc2ccncc2F)cc1-c1cccc(C(=O)OCC2CCCC2)c1` [Compound 185]: 100 to 1000 nM; for `NCc1ccc(C(=O)Nc2ccncc2F)cc1-c1cccc(C(=O)OCC2CCCO2)c1` (centres unmarked) [Compound 187]: 100 to 1000 nM; for `NCc1ccc(C(=O)Nc2ccncc2F)cc1-c1cccc(C(=O)OCCC23CC4CC(CC(C4)C2)C3)c1` [Compound 189]: 100 to 1000 nM.

Regarding `NCc1ccc(C(=O)Nc2ccncc2F)cc1-c1cccc(OCC(=O)OCC2CCCC2)c1` [Compound 191], the IC50 in assay [2] fell in the range of 100 to 1000 nM. Turning to `NCc1ccc(C(=O)Nc2ccncc2F)cc1-c1cccc(CC(=O)OCCF)c1` [Compound 192], in assay [2], the IC50 fell in the range of 1000 to 10000 nM.

For `N#CCCOC(=O)Cc1cccc(-c2cc(C(=O)Nc3ccncc3F)ccc2CN)c1` [Compound 194], the concentration for half-maximal inhibition (IC50) in assay [2] was 1000 to 10000 nM.

On to `NCc1ccc(C(=O)Nc2ccncc2F)cc1-c1cccc(CC(=O)OCCO)c1` [Compound 195], for which the IC50 in assay [2] fell in the range of 1000 to 10000 nM.
